Like-named read-outs stand apart in the source and are kept apart here.
Legend:
[1] = system: A549 non-small cell lung cancer (NSCLC) cell line; test: MTT cytotoxicity assay, A549
Experimental: (§1) The MTT test was used to evaluate the inhibitory effects of the substances on cell proliferation in the aforementioned cell lines. This colorimetric assay targets the mitochondrial succinate dehydrogenase of living cells to change yellow tetrazolium bromide (MTT) to a purple formazan derivative. […] Then, the cells were incubated for 24 h and exposed to various chemical concentrations. 20 μL of a 5 mg/mL MTT solution was applied after a 24-h drug treatment period and incubated for 4 h. To dissolve the produced purple formazan, each well receives 100 μL of dimethyl sulfoxide (DMSO). […] The formula for calculating the relative percentage of cell viability was (A570 of treated samples/A570 of the untreated sample) × 100.

A549 cells [2] = test: Cell cycle analysis by flow cytometry; assay type: cell-based, human; conditions: A549, 4c at IC50 (2 nM), 24 h (b61 also says 48 h)
Experimental: Briefly, a six-well plate containing lung cancer (A549) cells was seeded with 1 × 10^5 cells per well and then incubated for 24 h. 2 nM of compound 4c or 0.1% DMSO was applied to the cells for 24 h. Following that, cells were gathered and fixed in ice-cold 70% ethanol at 4 °C for 12 h. The cells were then rinsed with cold Phosphate Buffer Saline (PBS) and incubated for 30 min at 37 °C in 0.5 ml of PBS after the ethanol was removed. Propidium iodide was used to stain the cells for 30 min in the dark. DNA content was determined using a flow cytometer.
The cell cycle is required for cell division and replication. The cell cycle was divided into four distinct phases: G1 phase ([…]), S phase (synthesis), G2 phase (interphase), and M phase (mitosis). The G1 phase, also known as the post-mitotic pre-synthesis phase, is distinguished by direct cell division. DNA replication identifies the S phase. The G2 phase, premitotic, or post-synthetic phase, which can be considered the actual division, is when the cell prepares to split into two cells. Finally, the doubled DNA organised in chromosomes is separated during the M- or mitosis-phase division. Many anticancer drugs cause apoptosis, cell cycle arrest, or a combination of both as part of their cytotoxic action.

[3] = In vitro cytotoxicity on WI-38 human cell line (MTT); assay type: cell-based; conditions: WI-38 normal fibroblast cells, WI-38 normal fibroblasts
Experimental: Cell line cells were provided from the American Type Culture Collection cultured in DMEM (Invitrogen/Life Technologies) with 10% FBS (Hyclone), 1% penicillin-streptomycin, and 10 μg/mL insulin (Sigma). The remainder of the chemicals and reagents were provided by either Sigma or Invitrogen. Prior to the MTT assay, plated cells were incubated for 24 h in a 96-well plate with 100 μl of the test substance per well and 100 μl of complete growth medium (cell density 1.2–1.8 × 10,000 cells/well). Cultures were transferred from the incubator and placed in a sterile work area or laminar flow hood. Then, 10% of the culture medium volume of reconstituted MTT was added, and the cultures were incubated for an additional 2 h. After that, cultures were taken out of the incubator, and the formazan crystals were dissolved using MTT solubilising solution [M-8910] in an amount equal to the volume of the original culture medium. The absorbance at 570 nm was measured. Finally, the IC50 of the test compound compared to the reference was calculated using the GraphPad Prism software.

[4] = system: A498 renal cell carcinoma cell line; test: MTT cytotoxicity assay, A498
Experimental: as §1

[5] = system: MCF7 breast cancer cell line; test: MTT cytotoxicity assay, MCF7; conditions: SI = IC50 normal cell (WI-38)/IC50 cancer cell (MCF7)
Experimental: as §1
The newly prepared compounds were screened against three cancer cell lines: namely, breast cancer cell line MCF7, non-small cell lung cancer (NSCLC) cell line A549, and renal cancer cell line A498, using the MTT colorimetric assay.

A549 cells [6] = test: Annexin V-FITC apoptosis assay; assay type: cell-based, human
Experimental: Each well of a 6-well plate received 1 × 10^5 conc. lung cancer (A549) cells that were then incubated for 24 h. The cells were then exposed for 24 h to 2 nM compound 4c or (0.1%) DMSO before being harvested, washed with PBS, and stained for 15 min at room temperature in the dark with annexin V-FITC and PI in binding buffer ([…] at pH 7.4). The flow cytometer was then used to examine the cells.
Apoptotic cell death is a method by which an anticancer agent destroys tumour cells. Therefore, compound 4c was additionally estimated through an Annexin V-FITC experiment utilising A549 cells to evaluate if the cytotoxic action of the novel compound is related to necrosis or apoptosis.

human topoisomerase II = human topoisomerase II (Homo sapiens, UniProt P11388); test: DNA Topo II inhibition (kDNA decatenation) assay; assay type: biochemical
Sequence of human topoisomerase II (P11388 whole entry): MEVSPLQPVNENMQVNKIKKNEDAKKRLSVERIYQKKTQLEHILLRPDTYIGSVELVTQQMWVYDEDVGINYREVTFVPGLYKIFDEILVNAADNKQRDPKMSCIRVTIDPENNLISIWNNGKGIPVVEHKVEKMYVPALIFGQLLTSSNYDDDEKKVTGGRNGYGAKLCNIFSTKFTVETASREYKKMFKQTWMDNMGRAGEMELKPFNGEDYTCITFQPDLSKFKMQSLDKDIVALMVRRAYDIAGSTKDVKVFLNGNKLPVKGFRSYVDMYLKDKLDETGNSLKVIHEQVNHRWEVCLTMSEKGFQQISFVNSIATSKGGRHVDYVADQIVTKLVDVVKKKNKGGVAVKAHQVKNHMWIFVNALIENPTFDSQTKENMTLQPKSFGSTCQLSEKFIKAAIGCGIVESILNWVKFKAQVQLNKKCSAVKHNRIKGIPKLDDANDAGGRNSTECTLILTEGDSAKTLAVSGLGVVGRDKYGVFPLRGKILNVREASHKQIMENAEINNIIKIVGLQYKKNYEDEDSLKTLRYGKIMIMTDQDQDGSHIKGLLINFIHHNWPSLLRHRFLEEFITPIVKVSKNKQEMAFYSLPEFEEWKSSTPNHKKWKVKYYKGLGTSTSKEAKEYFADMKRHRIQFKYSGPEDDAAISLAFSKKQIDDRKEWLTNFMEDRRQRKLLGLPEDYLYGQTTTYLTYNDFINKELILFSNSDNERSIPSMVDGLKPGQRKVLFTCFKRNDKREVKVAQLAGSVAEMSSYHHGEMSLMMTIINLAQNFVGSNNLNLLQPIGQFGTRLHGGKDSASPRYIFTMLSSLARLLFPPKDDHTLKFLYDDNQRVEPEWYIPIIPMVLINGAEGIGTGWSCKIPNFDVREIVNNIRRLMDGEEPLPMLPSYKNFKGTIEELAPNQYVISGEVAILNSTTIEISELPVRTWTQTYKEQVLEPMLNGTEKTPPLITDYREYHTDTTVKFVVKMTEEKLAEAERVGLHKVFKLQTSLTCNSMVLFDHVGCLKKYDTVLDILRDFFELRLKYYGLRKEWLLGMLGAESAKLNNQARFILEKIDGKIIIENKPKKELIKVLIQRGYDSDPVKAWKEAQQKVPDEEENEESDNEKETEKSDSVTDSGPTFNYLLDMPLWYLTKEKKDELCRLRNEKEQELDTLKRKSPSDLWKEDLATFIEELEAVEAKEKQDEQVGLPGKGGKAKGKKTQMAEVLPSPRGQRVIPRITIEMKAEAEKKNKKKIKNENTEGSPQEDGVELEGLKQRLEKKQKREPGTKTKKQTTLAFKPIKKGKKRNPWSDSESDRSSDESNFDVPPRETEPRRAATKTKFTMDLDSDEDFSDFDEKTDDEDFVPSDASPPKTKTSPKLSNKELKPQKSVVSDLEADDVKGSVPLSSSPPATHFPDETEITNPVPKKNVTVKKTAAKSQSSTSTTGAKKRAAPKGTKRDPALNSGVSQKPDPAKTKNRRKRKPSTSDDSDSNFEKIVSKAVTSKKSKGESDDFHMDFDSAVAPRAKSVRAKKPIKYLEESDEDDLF
Experimental: The ATP-dependent decatenation of kinetoplast DNA (kDNA) obtained from Crithidia fasciculata, which consists of a network of numerous minicircles (2.3 Kb) and some maxicircles, was used to measure topoisomerase II inhibition. Reactions took place in 20 μL and comprised topoisomerase II, 200–300 ng of kDNA, and 120 mM KCl with 50 mM Tris-HCl, pH 8, 10 mM MgCl2, 0.5 mM ATP, and 0.5 mM dithiothreitol. In preliminary tests, the quantity of topoisomerase II (5 units) was changed to decatenate almost 100% of the kDNA under these assay circumstances. […] The products in the reaction mixture were separated by a 1% agarose gel after the reaction was complete and then could be seen after being stained with ethidium bromide (0.2 μg/mL). The gels were run at 100 V for about 40 min and visualised under UV transillumination.
This assay is based on the fact that human Topo II can decatenate interlinked double-stranded DNA molecules.

## CCOC(=O)C1=C(C)N=C2SC=C(NC(=O)c3c(Cl)cc(Cl)cc3Cl)N2C1c1ccc(OC)cc1OC (stereo not drawn) [Compound 4c, Ethyl 5–(2,4-dimethoxyphenyl)-7-methyl-3–(2,4,6-trichlorobenzamido)-5H-thiazolo[3,2-a]pyrimidine-6-carboxylate]
[1]; Homo sapiens, A549, 24 h, read-out: Cytotoxicity IC50 A549± SD, MTT, A549, 24 h treatment, mean ± SD of two independent assays
  IC50: 2 nM
[1]; SI = IC50 normal cell (WI-38)/IC50 cancer cell (A549)
  Selectivity index (SI) A549: 7770
[1]; read-out: Cytotoxicity IC50 A549± SD, MTT, A549, 24 h treatment, mean ± SD of two independent assays
  IC50: 1 nM
A549 cells [2]; control 13.97
  %G2/M: 4.04%
A549 cells [2]; control 29.64
  %S: 26.89%
A549 cells [2]; control 56.39
  %G0–G1: 69.07%
[3]
  IC50 at 24 h: 15500 ± 840 nM
[4]; Homo sapiens, A498, 24 h, read-out: Cytotoxicity IC50 A498± SD, MTT, A498, 24 h treatment, mean ± SD of two independent assays
  IC50: 1 nM
[4]; SI = IC50 normal cell (WI-38)/IC50 cancer cell (A498)
  Selectivity index (SI) A498: 15540
[4]; read-out: Cytotoxicity IC50 A498± SD, MTT, A498, 24 h treatment, mean ± SD of two independent assays
  IC50: 2 nM
[5]
  Selectivity index (SI) MCF7: 7770
A549 cells [6]; A549
  elevation in the total apoptosis versus control: 26.47 fold
  increase in early apoptotic cells versus control: 61.92 fold
  increase in late apoptotic cells versus control: 97 fold
  increase in the percentage of necrosis versus control: 2.5 fold
A549 cells [6]; A549, 4c at IC50 (2 nM), control 0.13%
  late apoptotic cells: 12.61%
A549 cells [6]; A549, 4c at IC50 (2 nM), control […]
  early apoptotic cells: 24.15%
Human topoisomerase II; conc 0.1 (μM)
  %inh TOPO II: 44%
Human topoisomerase II; conc 1 (μM)
  %inh TOPO II: 60%
Human topoisomerase II; conc 10 (μM)
  %inh TOPO II: 79%
Human topoisomerase II; conc 100 (μM)
  %inh TOPO II: 92%
Human topoisomerase II; kDNA decatenation, four concentrations 0.1-100 µM, mean ± SD of two independent assays
  IC50: 230 ± 10 nM
Human topoisomerase II; versus IC50 of Doxorubicin
  Topo II potency relative to Doxorubicin (IC50 ratio): 3.6 fold
Human topoisomerase II; versus IC50 of Etoposide
  Topo II potency relative to Etoposide (IC50 ratio): 1.4 fold

Source: PMC9930781, “Design, synthesis, docking, and anticancer evaluations of new thiazolo[3,2-a] pyrimidines as topoisomerase II inhibitors” (Journal of Enzyme Inhibition and Medicinal Chemistry, 2023)
